Results reported in patent US11850279B2, “Platforms and methods for optimizing host antigen presentation and host antitumor and antipathogen immunity” (OHIO STATE INNOVATION FOUNDATION, priority 2016, dated 2023).

What was measured:
[1] = tested on: endogenous DCs; experiment: Activation of endogenous DCs by α-GC loaded CABs; conditions: α-GC loading of CABs prior to in vivo administration
Text: In addition to GM-CSF and Flt-3L, antigen presenting capabilities of activated B cells (or other professional APCs) are enhanced by in vitro loading of APCs with α-GC prior to in vivo administration.

[2] = tested on: CD8^+ T cells; experiment: In vivo CD8+ T cell priming by activated B cells / CABs
Text: In other words, in vivo CD8^+ T cell priming is increased by antecedent treatment with Flt-3L and GM-CSF.
In vivo CD8^+ T cell priming is increased by CHX treatment of activated B cells prior to injection. CHX can boost antigen presenting capacity by increasing survival of activated B cells.
While in this model, GM-CSF/Flt-3L administration improved the efficacy of OVA-loaded B cell treatment, it is important to note that this cytokine treatment can improve the efficacy of intervention with other antigen-loaded antigen presenting cells (e.g. dendritic cell-based vaccine platforms).

[3] = tested on: NKT cells; conditions: human, in vivo; cited from earlier work
[4] = tested on: tumor; conditions: cited from earlier work
[5] = tested on: tumor; experiment: Anti-tumor activity of CABs (tumor size); type: in vivo, mouse
Procedure: The zero-length cross linker EDAC promotes attachment of amino-containing molecules to activated B cells, such as CABs (Chlamydia activated B cells). In the bottom panel, the antigen presenting ability of activated B cells (or other professional APCs) can be enhanced by crosslinking desired antigen (protein or peptide) with EDAC prior to in vivo administration.
“Low dose” is therefore defined as 2 μg-8 μg per kg in humans for Flt-3L, and 0.5 μg-2 μg per kg in humans for GM-CSF. “High dose” is defined as any amount above 8 μg/kg of Flt-3L and above 2 μg/kg of GM-CSF.

CCCCCCCCCCCCCCCCCCCCCCCCCC(=O)N[C@@H](CO[C@H]1O[C@H](CO)[C@H](O)[C@H](O)[C@H]1O)[C@H](O)[C@H](O)CCCCCCCCCCCCCC [α-GC, α-Galactosylceramide]
activation of endogenous DCs [1]: dramatically increase
effector function of primed antigen-specific CD8^+ T cells ([2]; α-GC-loaded CABs): enhance
NKT cells in the peripheral blood of treated cancer patients [3]: fell to undetectable levels
tumor growth [4]: inhibit tumor growth
tumor size ([5]; α-GC loaded activated B cells, effect dependent on NKT cells): more effectively reduce tumor size

C[C@@H]1C[C@@H]([C@H](O)CC2CC(=O)NC(=O)C2)C(=O)[C@@H](C)C1 [CHX, Cycloheximide]
in vivo CD8^+ T cell priming ([2]; CHX treatment of activated B cells prior to injection): increased

CCN=C=NCCCN(C)C [EDAC, 1-ethyl 1-3-(3-dimethylaminopropyl)-carbodiimide]
antitumor therapeutic activity ([5]; peptide chemically conjugated to CABs using EDAC vs simple peptide pulsing/loading): increases antitumor therapeutic activity
